Assay results as given in the supplement of paper PMC9912026.

Tested on: A375_Cra_F7_5/13
Assay: pERK immunofluorescence, normalised; higher = more ERK phosphorylation
Details: vemurafenib 0 µM, drug treatment time 24 h
Protocol: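 A375 or A375 CRISPRa-EGFR (A375_Cra_F7_5/13) cells were adapted for 24 h to a cobimetinib dose series, with or without 1 uM vemurafenib, then stimulated with EGF (100 ng/mL) or mock medium and fixed at the indicated times. pERK was measured by immunofluorescence as the population mean normalised to baseline, with the SD of technical replicates (n=2).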

O=C(c1ccc(F)c(F)c1Nc1ccc(I)cc1F)N1CC(O)([C@@H]2CCCCN2)C1 [cobimetinib]
pERK immunofluorescence
Details | cobimetinib 31.62 pM | cobimetinib 0.0001 µM | cobimetinib 0.000316228 µM | cobimetinib 0.001 µM | cobimetinib 0.003162278 µM | cobimetinib 0.01 µM | cobimetinib 0.031622777 µM | cobimetinib 0.1 µM | cobimetinib 0.316227766 µM | cobimetinib 1 µM
EGF 0 ng/mL, time after EGF/mock 0.083 h | 0.992 | 1.01 | 0.951 | 0.771 | 0.467 | 0.234 | 0.142 | 0.111 | 0.0968 | 0.0989
EGF 0 ng/mL, time after EGF/mock 0.5 h | 0.968 | 0.9446 | 0.859 | 0.742 | 0.422 | 0.214 | 0.177 | 0.143 | 0.0997 | 0.09394
EGF 0 ng/mL, time after EGF/mock 2 h | 1.05 | 1.018 | 1.03 | 0.8492 | 0.55 | 0.217 | 0.121 | 0.107 | 0.1 | 0.099798
EGF 0 ng/mL, time after EGF/mock 8 h | 0.974 | 0.999 | 0.9603 | 0.801 | 0.47 | 0.189 | 0.102 | 0.086 | 0.082 | 0.082503
EGF 0 ng/mL, time after EGF/mock 24 h | 1.07 | 1.053 | 1.04 | 0.927 | 0.531 | 0.189 | 0.116 | 0.1 | 0.08927 | 0.0841
EGF 100 ng/mL, time after EGF/mock 0.083 h | 1.47 | 1.44 | 1.43 | 1.42 | 1.37 | 1.27 | 1.15 | 0.883 | 0.31 | 0.111
EGF 100 ng/mL, time after EGF/mock 0.5 h | 1.35 | 1.34 | 1.31 | 1.36 | 1.32 | 1.26 | 1.15 | 1.02 | 0.675 | 0.179
EGF 100 ng/mL, time after EGF/mock 2 h | 1.21 | 1.194 | 1.14 | 1.08 | 0.926 | 0.7446 | 0.65813 | 0.527 | 0.341 | 0.137
EGF 100 ng/mL, time after EGF/mock 8 h | 0.99 | 0.999 | 0.997 | 0.8777 | 0.735 | 0.5778 | 0.475 | 0.3675 | 0.221 | 0.1
EGF 100 ng/mL, time after EGF/mock 24 h | 1.07 | 1.08 | 1.084 | 1.04 | 0.902 | 0.689 | 0.5819 | 0.465 | 0.273 | 0.107
